Measured values published in patent US20250018019A1, “TREATMENT OF INTERFERON DRIVEN INFLAMMATION” (The Provost, Fellows, Foundation Scholars and the other …, priority 2023, published 2025).
Where a name gives a salt, the structure may show the parent alone.

Tested on: BMDMs
Experiment: Digitonin fractionation, qPCR of mtDNA and mtRNA
Type: cell-based, mouse
Protocol: All compounds used DMSO as a vehicle except for 4-hydroxy tamoxifen (EtOH), NAC (PBS), and AOAA for tracing experiments (Media). LPS was used at a concentration of 100 ng/ml for indicated timepoints (2, 3, 4, 6, 8, 24, 48 h). FHIN1 (10 or 20 μM), MMF (50 or 100 μM), DMF (25 μM), AOAA (5 mM), oligomycin (10 μM), CCCP (50 μM) NAC (1 mM), and IMT1 (10 μM) pre-treatments were performed for 3 h prior the addition of LPS. Cells were treated with valinomycin (10 nM) 15 mins before LPS stimulation. Anti-CD210 or IgG control (10 μg/ml) antibodies were added to cells 1 h prior to LPS stimulation. Recombinant mouse IL-10 protein (100 ng/ml) was added to cells at the same time as LPS. Cells were treated with IFN-B1 (220 ng/ml) for 3 h. Cells were treated with C-178 (1 μM) 1 h prior to LPS stimulation or transfection with 2′3′-cGAMP (1.5 μg/ml) for 4 hrs to achieve cGAS-STING activation. Cells were treated with ODN 2088 (1 μM) for 1 hr prior to LPS stimulation or transfection with CPG ODN 1826 (1.5 μg/ml) to achieve TLR9 activation. 3 different timepoints of 4-hydroxy tamoxifen (TAM) (600 nM or 2 μM) or EtOH treatment were performed-these are specified in the individual figure legends. For ‘48 h’ treatments EtOH/TAM was added on day 5 of 6 during the BMDM differentiation protocol. On day 6 they were plated with EtOH/TAM (left overnight) and treated the following day. For ‘72 h’ treatments EtOH/TAM was added on day […] of 6 during the BMDM differentiation protocol. On day 6 they were plated with EtOH/TAM (left overnight) and treated the following day. For ‘96 h’ treatments EtOH/TAM was added on day […] of 6 during the BMDM differentiation protocol. On day 6 they were plated with EtOH/TAM and treated 2 days later.
BMDMs were plated at 0.5×10^6 cells/well and treated as desired. After treatment, cells were washed once with room temperature PBS, before being scraped on ice into ice cold PBS and pelleted at 500×g for 5 mins at 4° C. Supernatant was removed and discarded, and the pellet was resuspended in 400 μl extraction buffer (150 mM NaCl, 50 mM HEPES pH 7.4, 25 μg/ml digitonin). Samples were then placed in a rotating mixer at 4° C. for 10 mins before centrifugation at 2000×g at 4° C. for 5 mins. The resulting supernatant constituted the cytosolic fraction, from which RNA and DNA were isolated using an AllPrep DNA/RNA Mini Kit (Qiagen). Alternatively, the cytosolic fraction was concentrated using Strataclean Resin (Agilent) and analysed by western blot. The pellet constituted a fraction containing membrane-bound organelles which was lysed in RNA lysis buffer for RNA isolation or lysed in western blot lysis buffer for analysis by western blot. To determine the presence of mtRNA and mtDNA in the cytosol, qPCR was performed using primers specific for mitochondrial D-loop on cDNA which had been reverse-transcribed from RNA isolated from the cytosolic fraction (mtRNA) and on DNA isolated from the cytosolic fraction (mtDNA). In both cases, values were normalised using a housekeeping control gene (β-actin) amplified in cDNA which had been reverse-transcribed from RNA isolated from the membrane-bound fraction.

SMILES: CCOC(=O)[C@@]12CCCC=C1N(Cc1ccc(-c3ccccc3)cc1)C(=O)[C@H]2CC(=O)NC [FHIN1, Fumarate hydratase-IN-1]
- mtRNA in whole cell fraction (BMDMs pre-treated, LPS 4 h): not in the whole cell fraction
- mtDNA in cytosolic extracts (D-loop) (digitonin-fractionated BMDMs): increase
- mtRNA in cytosolic extracts (digitonin-fractionated BMDMs): increased
